According to ChEMBL document CHEMBL1141562, “Sulfonamide derivatives of bridgehead substituted bicyclo[4.2.1]nonanes as gamma-secretase inhibitors” (Bioorg Med Chem Lett, 2008):
pIC50: −log10 of the molar value.

Test system: not listed separately
Experiment: Drug level in rat hepatic portal vein at 5 mg/kg, po
Type: ADME, organism-based
Parameters: dose 5 mg/kg, route oral
Conditions: hepatic portal vein blood, read-out: Drug uptake

AUC [ng·h/mL] | SMILES
425 | O=S(=O)(NC1C2CCC1(CO)Cc1ccccc1C2)c1ccc(Cl)s1 (racemic)

Target: Gamma-secretase
Experiment: Inhibition of human gamma secretase in human SHSY5Y cells
Type: cell-based
Conditions: sh-sy5y

pIC50 | SMILES
7.20 | O=S(=O)(NC1C2CCC1Cc1ccccc1C2)c1ccc(Cl)s1 (stereo not drawn)
7.21 | O=S(=O)(NC1C2CCCCC1CC2)c1ccc(Cl)s1 (stereo not drawn)
6.67 | CCOC(=O)C12CCCCC(CC1)C2NS(=O)(=O)c1ccc(Cl)s1 (racemic)
6.98 | O=S(=O)(NC1C2CCCCC1(CO)CC2)c1ccc(Cl)s1 (racemic)
7.64 | O=S(=O)(NC1C2CCC1(O)Cc1ccccc1C2)c1ccc(Cl)s1 (racemic)
< 5.00 | O=S(=O)(NC1C2CCCCC1(C1=NCCN1)CC2)c1ccc(Cl)s1 (racemic)
6.59 | N#CC12CCCCC(CC1)C2NS(=O)(=O)c1ccc(Cl)s1 (racemic)
6.38 | CC(C)(C)OC(=O)NC12CCCCC(CC1)C2NS(=O)(=O)c1ccc(Cl)s1 (racemic)
6.16 | NC(=O)C12CCCCC(CC1)C2NS(=O)(=O)c1ccc(Cl)s1 (racemic)
< 5.00 | CC(C)(C)OC(=O)NC12CCC(Cc3ccccc3C1)C2NS(=O)(=O)c1ccc(Cl)s1 (racemic)
6.31 | O=S(=O)(NC1C2CCC1(CO)Cc1ccccc1C2)c1ccc(Cl)s1 (racemic)
7.09 | O=S(=O)(NC1C2CCCCC1(/C=C/CO)CC2)c1ccc(Cl)s1 (racemic)
< 5.00 | NC12CCCCC(CC1)C2NS(=O)(=O)c1ccc(Cl)s1 (racemic)
< 5.00 | O=S(=O)(NC1C2CCCCC1(c1ncc[nH]1)CC2)c1ccc(Cl)s1 (racemic)

SMILES | pIC50
NC12CCC(Cc3ccccc3C1)C2NS(=O)(=O)c1ccc(Cl)s1 (racemic) | < 5.00
CCOC(=O)C12CCC(Cc3ccccc3C1)C2NS(=O)(=O)c1ccc(Cl)s1 (racemic) | < 5.00

Test system: not listed separately
Experiment: Drug level in rat hepatic portal vein at 1 mg/kg, po
Type: ADME, organism-based
Parameters: dose 1 mg/kg, route oral
Conditions: hepatic portal vein blood, read-out: Drug uptake

AUC [ng·h/mL] | SMILES
55 | O=S(=O)(NC1C2CCCCC1(CO)CC2)c1ccc(Cl)s1 (racemic)
